The record followed here is US20230374073A1, “DIMERIC MILLA IMMUNOMODULATORS” (Bristol-Myers Squibb Company, priority 2020, published 2023).

The assay has as its target T1, PD-1/PD-L1 (Homo sapiens, UniProt Q9NZQ7).
T1 construct: TVMV protease site (C); made in house; host or cells: HEK293T cells
Description: PD-1/PD-L1 Homogenous Time-Resolved Fluorescence (HTRF) binding assay. An excerpt: The ability of the compounds of formula (I) to bind to PD-L1 was investigated using a PD-1/PD-L1 Homogenous Time-Resolved Fluorescence (HTRF) binding assay.
Homogenous Time-Resolved Fluorescence (HTRF) Binding Assay
The interaction of PD-1 and PD-L1 can be assessed using soluble, purified preparations of the extracellular domains of the two proteins. The PD-1 and PD-L1 protein extracellular domains were expressed as fusion proteins with detection tags, for PD-1, the tag was the Fc portion of Immunoglobulin (PD-1-Ig) and for PD-L1 it was the 6 histidine motif (PD-L1-His). All binding studies were performed in an HTRF assay buffer consisting of dPBS supplemented with 0.1% […] bovine serum albumin and 0.05% (v/v) Tween-20. For the h/PD-L1-His binding assay, inhibitors were pre-incubated with PD-L1-His (10 nM final) for 15 m in 4 μl of assay buffer, followed by addition of PD-1-Ig (20 nM final) in 1 μl of assay buffer and further incubation for 15 m. HTRF detection was achieved using europium crypate-labeled anti-Ig (1 nM final) and allophycocyanin (APC) labeled anti-His (20 nM final). Antibodies were diluted in HTRF detection buffer and 5 μl was dispensed on top of the binding reaction. […]
Table 1 lists the IC50 values for representative examples of this disclosure measured in the PD-1/PD-L1 Homogenous Time-Resolved Fluorescence (HTRF) binding assay.
Background: Time-resolved FRET reads energy transfer from a long-lived donor to a nearby acceptor.

Starred links: 1 amine or outer side, 2 acyl side, 3 side chain; linkers in the order of their positions; H or OH if unused. Positions of bridges follow the written chain, without caps; N, C: chain ends. Non-standard residues stand in square brackets, D forms with d. Residues, ends and D or L forms follow the SMILES beside them. Chains are numbered I, II in the order given. Trp(1-CH2COOH) = N[C@@H](Cc1cn(CC(=O)O)c2ccccc12)C(=O)O; X1 = O=C(NC1CCC(CC2CCC(NC(=O)[*:2])CC2)CC1)[*:1]; Hyp = O=C(O)[C@@H]1C[C@@H](O)CN1; NMeNle = CCCC[C@H](NC)C(=O)O; NMeA = CN[C@@H](C)C(=O)O; Dab = NCC[C@H](N)C(=O)O; Dap = NC[C@H](N)C(=O)O

T1 sequence (Q9NZQ7 18-239): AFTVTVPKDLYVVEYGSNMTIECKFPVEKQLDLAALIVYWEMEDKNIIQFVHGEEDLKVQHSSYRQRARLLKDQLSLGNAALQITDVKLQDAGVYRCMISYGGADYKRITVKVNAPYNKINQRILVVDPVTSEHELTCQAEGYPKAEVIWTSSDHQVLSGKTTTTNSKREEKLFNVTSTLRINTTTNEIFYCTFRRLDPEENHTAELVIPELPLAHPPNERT

As usually defined, the IC50 is the concentration that gives 50% inhibition. In turn, `CCCC[C@H]1C(=O)N(C)[C@@H](CCCC)C(=O)N[C@@H](CC(C)C)C(=O)N[C@H](C(=O)NCC(N)=O)CSCC(=O)N[C@@H](Cc2ccc(O)cc2)C(=O)N(C)[C@@H](C)C(=O)N[C@@H](CC(N)=O)C(=O)N2CCC[C@H]2C(=O)N[C@@H](CNC(=O)NC2CCC(CC3CCC(NC(=O)NC[C@@H]4NC(=O)[C@@H]5CCCN5C(=O)[C@H](CC(N)=O)NC(=O)[C@H](C)N(C)C(=O)[C@H](Cc5ccc(O)cc5)NC(=O)CSC[C@@H](C(=O)NCC(N)=O)NC(=O)[C@H](CC(C)C)NC(=O)[C@H](CCCC)N(C)C(=O)[C@H](CCCC)N(C)C(=O)[C@H](Cc5cn(CC(=O)O)c6ccccc56)NC(=O)[C@H](CCN)NC(=O)[C@H](Cc5c[nH]c6ccccc56)NC(=O)[C@@H]5C[C@@H](O)CN5C(=O)[C@H](CC(C)C)NC4=O)CC3)CC2)C(=O)N[C@@H](CC(C)C)C(=O)N2C[C@H](O)C[C@H]2C(=O)N[C@@H](Cc2c[nH]c3ccccc23)C(=O)N[C@@H](CCN)C(=O)N[C@@H](Cc2cn(CC(=O)O)c3ccccc23)C(=O)N1C` (stereo partly shown) [Compound 1002] (I: {CH2CO}-Y[NMeA]NP[Dap]L[Hyp]W[Dab][Trp(1-CH2COOH)][NMeNle][NMeNle]LCG-NH2 / II: {CH2CO}-Y[NMeA]NP[Dap]L[Hyp]W[Dab][Trp(1-CH2COOH)][NMeNle][NMeNle]LCG-NH2; linker I:5-II:5 via X1; thioether I:N-I:14, II:N-II:14) registered a 50% inhibitory concentration (IC50) of 10 nM.
